Reference: the NIST ThermoML archive (doi:10.1021/je050074w)
± gives the expanded uncertainty stated by the source.

Assay: an = mass per volume of the nth substance listed, in kg/m3
Details: Wilhelmy plate method

CCCCCCCCCCCCOS(=O)(=O)[O-].[Na+] [sodium dodecyl sulfate] + O
surface tension liquid-gas (288.15 K, a1 = 0.00627): 71.99 ± 1.8 mN/m | surface tension liquid-gas (288.15 K, a1 = 0.0157): 65.28 ± 1.6 mN/m | surface tension liquid-gas (288.15 K, a1 = 0.0273): 64.13 ± 1.6 mN/m | surface tension liquid-gas (288.15 K, a1 = 0.0338): 69.24 ± 1.7 mN/m | surface tension liquid-gas (289.15 K, a1 = 0.00627): 71.91 ± 1.8 mN/m | surface tension liquid-gas (289.15 K, a1 = 0.0157): 65.17 ± 1.6 mN/m | surface tension liquid-gas (289.15 K, a1 = 0.0273): 64.05 ± 1.6 mN/m | surface tension liquid-gas (289.15 K, a1 = 0.0338): 69.1 ± 1.7 mN/m | surface tension liquid-gas (290.15 K, a1 = 0.00627): 71.74 ± 1.8 mN/m | surface tension liquid-gas (290.15 K, a1 = 0.0157): 65 ± 1.6 mN/m | surface tension liquid-gas (290.15 K, a1 = 0.0273): 63.88 ± 1.6 mN/m | surface tension liquid-gas (290.15 K, a1 = 0.0338): 68.89 ± 1.7 mN/m | surface tension liquid-gas (291.15 K, a1 = 0.00627): 71.58 ± 1.8 mN/m | surface tension liquid-gas (291.15 K, a1 = 0.0157): 64.83 ± 1.6 mN/m | surface tension liquid-gas (291.15 K, a1 = 0.0273): 63.72 ± 1.6 mN/m | surface tension liquid-gas (291.15 K, a1 = 0.0338): 68.76 ± 1.7 mN/m | surface tension liquid-gas (292.15 K, a1 = 0.00627): 71.41 ± 1.8 mN/m | surface tension liquid-gas (292.15 K, a1 = 0.0157): 64.67 ± 1.6 mN/m | surface tension liquid-gas (292.15 K, a1 = 0.0273): 63.56 ± 1.6 mN/m | surface tension liquid-gas (292.15 K, a1 = 0.0338): 68.59 ± 1.7 mN/m | surface tension liquid-gas (293.15 K, a1 = 0.00627): 71.24 ± 1.8 mN/m | surface tension liquid-gas (293.15 K, a1 = 0.0157): 64.48 ± 1.6 mN/m | surface tension liquid-gas (293.15 K, a1 = 0.0273): 63.37 ± 1.6 mN/m | surface tension liquid-gas (293.15 K, a1 = 0.0338): 68.45 ± 1.7 mN/m | surface tension liquid-gas (294.15 K, a1 = 0.00627): 71.07 ± 1.8 mN/m | surface tension liquid-gas (294.15 K, a1 = 0.0157): 64.32 ± 1.6 mN/m | surface tension liquid-gas (294.15 K, a1 = 0.0273): 63.19 ± 1.6 mN/m | surface tension liquid-gas (294.15 K, a1 = 0.0338): 68.28 ± 1.7 mN/m | surface tension liquid-gas (295.15 K, a1 = 0.00627): 70.89 ± 1.8 mN/m | surface tension liquid-gas (295.15 K, a1 = 0.0157): 64.17 ± 1.6 mN/m | surface tension liquid-gas (295.15 K, a1 = 0.0273): 63.02 ± 1.6 mN/m | surface tension liquid-gas (295.15 K, a1 = 0.0338): 68.11 ± 1.7 mN/m | surface tension liquid-gas (296.15 K, a1 = 0.00627): 70.76 ± 1.8 mN/m | surface tension liquid-gas (296.15 K, a1 = 0.0157): 64.03 ± 1.6 mN/m | surface tension liquid-gas (296.15 K, a1 = 0.0273): 62.88 ± 1.6 mN/m | surface tension liquid-gas (296.15 K, a1 = 0.0338): 67.97 ± 1.7 mN/m | surface tension liquid-gas (297.15 K, a1 = 0.00627): 70.59 ± 1.8 mN/m | surface tension liquid-gas (297.15 K, a1 = 0.0157): 63.86 ± 1.6 mN/m | surface tension liquid-gas (297.15 K, a1 = 0.0273): 62.74 ± 1.6 mN/m | surface tension liquid-gas (297.15 K, a1 = 0.0338): 67.78 ± 1.7 mN/m | surface tension liquid-gas (298.15 K, a1 = 0.00627): 70.43 ± 1.8 mN/m | surface tension liquid-gas (298.15 K, a1 = 0.0157): 63.71 ± 1.6 mN/m | surface tension liquid-gas (298.15 K, a1 = 0.0273): 62.6 ± 1.6 mN/m | surface tension liquid-gas (298.15 K, a1 = 0.0338): 67.63 ± 1.7 mN/m | surface tension liquid-gas (299.15 K, a1 = 0.00627): 70.29 ± 1.8 mN/m | surface tension liquid-gas (299.15 K, a1 = 0.0157): 63.57 ± 1.6 mN/m | surface tension liquid-gas (299.15 K, a1 = 0.0273): 62.49 ± 1.6 mN/m | surface tension liquid-gas (299.15 K, a1 = 0.0338): 67.44 ± 1.7 mN/m | surface tension liquid-gas (300.15 K, a1 = 0.00627): 70.16 ± 1.8 mN/m | surface tension liquid-gas (300.15 K, a1 = 0.0157): 63.41 ± 1.6 mN/m | surface tension liquid-gas (300.15 K, a1 = 0.0273): 62.36 ± 1.6 mN/m | surface tension liquid-gas (300.15 K, a1 = 0.0338): 67.29 ± 1.7 mN/m | surface tension liquid-gas (301.15 K, a1 = 0.00627): 70.01 ± 1.8 mN/m | surface tension liquid-gas (301.15 K, a1 = 0.0157): 63.26 ± 1.6 mN/m | surface tension liquid-gas (301.15 K, a1 = 0.0273): 62.25 ± 1.6 mN/m | surface tension liquid-gas (301.15 K, a1 = 0.0338): 67.11 ± 1.7 mN/m | surface tension liquid-gas (302.15 K, a1 = 0.00627): 69.84 ± 1.8 mN/m | surface tension liquid-gas (302.15 K, a1 = 0.0157): 63.08 ± 1.6 mN/m | surface tension liquid-gas (302.15 K, a1 = 0.0273): 62.11 ± 1.6 mN/m | surface tension liquid-gas (302.15 K, a1 = 0.0338): 66.95 ± 1.7 mN/m | surface tension liquid-gas (303.15 K, a1 = 0.00627): 69.68 ± 1.7 mN/m | surface tension liquid-gas (303.15 K, a1 = 0.0157): 62.94 ± 1.6 mN/m | surface tension liquid-gas (303.15 K, a1 = 0.0273): 62.01 ± 1.6 mN/m | surface tension liquid-gas (303.15 K, a1 = 0.0338): 66.77 ± 1.7 mN/m | surface tension liquid-gas (304.15 K, a1 = 0.00627): 69.53 ± 1.7 mN/m | surface tension liquid-gas (304.15 K, a1 = 0.0157): 62.76 ± 1.6 mN/m | surface tension liquid-gas (304.15 K, a1 = 0.0273): 61.9 ± 1.6 mN/m | surface tension liquid-gas (304.15 K, a1 = 0.0338): 66.61 ± 1.7 mN/m | surface tension liquid-gas (305.15 K, a1 = 0.00627): 69.39 ± 1.7 mN/m | surface tension liquid-gas (305.15 K, a1 = 0.0157): 62.66 ± 1.6 mN/m | surface tension liquid-gas (305.15 K, a1 = 0.0273): 61.83 ± 1.6 mN/m | surface tension liquid-gas (305.15 K, a1 = 0.0338): 66.42 ± 1.7 mN/m | surface tension liquid-gas (306.15 K, a1 = 0.00627): 69.23 ± 1.7 mN/m | surface tension liquid-gas (306.15 K, a1 = 0.0157): 62.52 ± 1.6 mN/m | surface tension liquid-gas (306.15 K, a1 = 0.0273): 61.72 ± 1.5 mN/m | surface tension liquid-gas (306.15 K, a1 = 0.0338): 66.25 ± 1.7 mN/m | surface tension liquid-gas (307.15 K, a1 = 0.00627): 69.08 ± 1.7 mN/m | surface tension liquid-gas (307.15 K, a1 = 0.0157): 62.32 ± 1.6 mN/m | surface tension liquid-gas (307.15 K, a1 = 0.0273): 61.62 ± 1.5 mN/m | surface tension liquid-gas (307.15 K, a1 = 0.0338): 66.04 ± 1.6 mN/m | surface tension liquid-gas (308.15 K, a1 = 0.00627): 68.94 ± 1.7 mN/m | surface tension liquid-gas (308.15 K, a1 = 0.0157): 62.16 ± 1.6 mN/m | surface tension liquid-gas (308.15 K, a1 = 0.0273): 61.54 ± 1.5 mN/m
